Measured values reported in PubChem BioAssay AID1745844 (Carcinogenic Potency Database (CPDB), 2022).
Several values for one entry are separate records, joined by “and”; a condition that tells them apart may be missing. Identical values can stand only once. Activity calls are given as the source filed them. How the calls were made is not given here.

System: rodent lifetime carcinogenesis bioassay, tumor incidence TD50
Assay: carcinogenic potency in animals, long-term in vivo studies, CPDB compilation (AID 1745844)

With `O=S(=O)(c1ccc(Cl)cc1)c1cc(Cl)c(Cl)cc1Cl` the TD50 (mouse, strain B6AKF1, females, oral dosing, site: any site (literature study), lesion: several types, types named in the paper, dosed 76 weeks, study length 76 weeks) was 233 mg/kg/day (inactive), the TD50 (mouse, strain B6AKF1, females, oral dosing, site: liver, lesion: hepatoma, dosed 76 weeks, study length 76 weeks) was 233 mg/kg/day (inactive) and the carcinogen call (mouse, strain B6AKF1, females, oral dosing, site: lung, lesion: adenoma, dosed 76 weeks, study length 76 weeks) was “negative (inactive)”. The carcinogen call (mouse, strain B6AKF1, males, oral dosing, site: any site (literature study), lesion: several types, types named in the paper, dosed 76 weeks, study length 76 weeks) was “negative (inactive)”, the carcinogen call (mouse, strain B6AKF1, males, oral dosing, site: liver, lesion: hepatoma, dosed 76 weeks, study length 76 weeks) was “negative (inactive)” and the carcinogen call (mouse, strain B6AKF1, males, oral dosing, site: lung, lesion: adenoma, dosed 76 weeks, study length 76 weeks) was “negative (inactive)”. The TD50 (mouse, strain B6C3F1, females, oral dosing, site: any site (literature study), lesion: several types, types named in the paper, dosed 76 weeks, study length 76 weeks) was 220 mg/kg/day (inactive), the carcinogen call (mouse, strain B6C3F1, females, oral dosing, site: liver, lesion: hepatoma, dosed 76 weeks, study length 76 weeks) was “negative (inactive)” and the carcinogen call (mouse, strain B6C3F1, females, oral dosing, site: lung, lesion: several types, types named in the paper, dosed 76 weeks, study length 76 weeks) was “negative (inactive)”. The TD50 (mouse, strain B6C3F1, males, oral dosing, site: any site (literature study), lesion: several types, types named in the paper, dosed 76 weeks, study length 76 weeks) was 35.6 mg/kg/day (inactive), the TD50 (mouse, strain B6C3F1, males, oral dosing, site: liver, lesion: hepatoma, dosed 76 weeks, study length 76 weeks) was 46.2 mg/kg/day (inactive) and the TD50 (mouse, strain B6C3F1, males, oral dosing, site: lung, lesion: adenoma, dosed 76 weeks, study length 76 weeks) was 205 mg/kg/day (inactive).
With `CC(C)CCC[C@@H](C)[C@H]1CC[C@H]2[C@@H]3CC=C4C[C@@H](OC(=O)Cc5ccc(N(CCCl)CCCl)cc5)CC[C@]4(C)[C@H]3CC[C@]12C` the TD50 (mouse, strain B6C3F1, females, by gavage, site: all sites + lung + myocardium, lesion: leukemia + lymphoma + alveolar/bronchiolar adenoma + alveolar/bronchiolar carcinoma + sarcoma, NOS, dosed 70 weeks, study length 83 weeks) was 0.211 mg/kg/day, the TD50 (mouse, strain B6C3F1, females, by gavage, site: all sites, lesion: hemangiosarcoma, dosed 70 weeks, study length 83 weeks) was 1.52 mg/kg/day and the TD50 (mouse, strain B6C3F1, females, by gavage, site: all sites, lesion: leukemia + lymphoma, dosed 70 weeks, study length 82 weeks) was 2.07 mg/kg/day. The TD50 (mouse, strain B6C3F1, females, by gavage, site: all sites, lesion: leukemia + lymphoma, dosed 70 weeks, study length 83 weeks) was 0.652 mg/kg/day, the TD50 (mouse, strain B6C3F1, females, by gavage, site: any site (literature study), lesion: several types, types named in the paper, dosed 70 weeks, study length 83 weeks) was 0.183 mg/kg/day and the TD50 (mouse, strain B6C3F1, females, by gavage, site: lung, lesion: alveolar/bronchiolar adenoma + alveolar/bronchiolar carcinoma, dosed 70 weeks, study length 83 weeks) was 0.416 mg/kg/day. For the same molecule, the TD50 (mouse, strain B6C3F1, females, by gavage, site: myocardium, lesion: sarcoma, NOS, dosed 70 weeks, study length 83 weeks) was 0.951 mg/kg/day, the TD50 (mouse, strain B6C3F1, females, by gavage, site: ovary, lesion: tubular adenoma, dosed 70 weeks, study length 83 weeks) was 0.912 mg/kg/day and the TD50 (mouse, strain B6C3F1, males, by gavage, site: all sites + lung + myocardium, lesion: leukemia + lymphoma + alveolar/bronchiolar adenoma + alveolar/bronchiolar carcinoma + sarcoma, NOS, dosed 64 weeks, study length 81 weeks) was 0.757 mg/kg/day. The TD50 (mouse, strain B6C3F1, males, by gavage, site: all sites, lesion: hemangiosarcoma, dosed 64 weeks, study length 81 weeks) was 6.15 mg/kg/day, the TD50 (mouse, strain B6C3F1, males, by gavage, site: all sites, lesion: leukemia + lymphoma, dosed 64 weeks, study length 81 weeks) was 2.13 mg/kg/day and 1.89 mg/kg/day and the TD50 (mouse, strain B6C3F1, males, by gavage, site: any site (literature study), lesion: several types, types named in the paper, dosed 64 weeks, study length 81 weeks) was 0.728 mg/kg/day. It also gave a TD50 (mouse, strain B6C3F1, males, by gavage, site: liver, lesion: hepatocellular adenoma + hepatocellular carcinoma + neoplastic nodule, dosed 64 weeks, study length 81 weeks) of 32.9 mg/kg/day, a TD50 (mouse, strain B6C3F1, males, by gavage, site: lung, lesion: alveolar/bronchiolar adenoma + alveolar/bronchiolar carcinoma, dosed 64 weeks, study length 81 weeks) of 1.19 mg/kg/day and a TD50 (mouse, strain B6C3F1, males, by gavage, site: lung, lesion: alveolar/bronchiolar carcinoma, dosed 64 weeks, study length 81 weeks) of 2.05 mg/kg/day. For the same molecule, the TD50 (mouse, strain B6C3F1, males, by gavage, site: myocardium, lesion: sarcoma, NOS, dosed 64 weeks, study length 81 weeks) was 3.87 mg/kg/day and 6.28 mg/kg/day, the TD50 (rat, strain Sprague-Dawley, females, by gavage, site: any site (literature study), lesion: several types, types named in the paper, dosed 52 weeks, study length 85 weeks) was 0.271 mg/kg/day and the TD50 (rat, strain Sprague-Dawley, females, by gavage, site: mammary gland, lesion: adenocarcinoma, NOS, dosed 52 weeks, study length 85 weeks) was 0.523 mg/kg/day. For the same molecule, the TD50 (rat, strain Sprague-Dawley, males, by gavage, site: all sites, lesion: leukemia + lymphoma, dosed 52 weeks, study length 84 weeks) was 2.73 mg/kg/day (inactive) and the TD50 (rat, strain Sprague-Dawley, males, by gavage, site: any site (literature study), lesion: several types, types named in the paper, dosed 52 weeks, study length 84 weeks) was 0.481 mg/kg/day (inactive).
In the case of `Cc1c(C)c2c(c(C)c1O)CCC(C)(CCCC(C)CCCC(C)CCCC(C)C)O2` (centres undefined), the carcinogen call (rat, strain F344/DuCrj, females, in feed, site: colon, lesion: one or several types, types not named, dosed 54 weeks, study length 54 weeks) is reported as “negative (inactive)”, the carcinogen call (rat, strain F344/DuCrj, females, in feed, site: mammary gland, lesion: one or several types, types not named, dosed 54 weeks, study length 54 weeks) is reported as “negative (inactive)” and the carcinogen call (rat, strain F344/DuCrj, males, in feed, site: esophagus, lesion: one or several types, types not named, dosed 52 weeks, study length 52 weeks) is reported as “negative (inactive)”. For the same molecule, the carcinogen call (rat, strain F344/DuCrj, males, in feed, site: forestomach, lesion: one or several types, types not named, dosed 52 weeks, study length 52 weeks) was “negative (inactive)” and the carcinogen call (rat, strain F344/DuCrj, males, in feed, site: liver, lesion: one or several types, types not named, dosed 52 weeks, study length 52 weeks) was “negative (inactive)”.
For `Cc1ccc(/C(=C\CN2CCCC2)c2ccccn2)cc1`, the carcinogen call (mouse, strain B6C3F1, females, in feed, site: any site (literature study), lesion: benign tumor, dosed 104 weeks, study length 105 weeks) was “negative (inactive)”, the carcinogen call (mouse, strain B6C3F1, females, in feed, site: any site (literature study), lesion: malignant tumor, dosed 104 weeks, study length 105 weeks) was “negative (inactive)” and the carcinogen call (mouse, strain B6C3F1, females, in feed, site: any site (literature study), lesion: several types, types named in the paper, dosed 104 weeks, study length 105 weeks) was “negative (inactive)”. The carcinogen call (mouse, strain B6C3F1, females, in feed, site: liver, lesion: hepatocellular adenoma, dosed 104 weeks, study length 105 weeks) was “negative (inactive)”, the carcinogen call (mouse, strain B6C3F1, females, in feed, site: liver, lesion: hepatocellular carcinoma, dosed 104 weeks, study length 105 weeks) was “negative (inactive)” and the carcinogen call (mouse, strain B6C3F1, females, in feed, site: liver, lesion: several types, types named in the paper, dosed 104 weeks, study length 105 weeks) was “negative (inactive)”. The carcinogen call (mouse, strain B6C3F1, females, in feed, site: lung, lesion: several types, types named in the paper, dosed 104 weeks, study length 105 weeks) was “negative (inactive)”, the carcinogen call (mouse, strain B6C3F1, males, in feed, site: any site (literature study), lesion: benign tumor, dosed 104 weeks, study length 105 weeks) was “negative (inactive)” and the carcinogen call (mouse, strain B6C3F1, males, in feed, site: any site (literature study), lesion: malignant tumor, dosed 104 weeks, study length 105 weeks) was “negative (inactive)”. For the same molecule, the carcinogen call (mouse, strain B6C3F1, males, in feed, site: any site (literature study), lesion: several types, types named in the paper, dosed 104 weeks, study length 105 weeks) was “negative (inactive)”, the TD50 (mouse, strain B6C3F1, males, in feed, site: liver, lesion: hepatocellular adenoma, dosed 104 weeks, study length 105 weeks) was 2330 mg/kg/day (inactive) and the carcinogen call (mouse, strain B6C3F1, males, in feed, site: liver, lesion: hepatocellular carcinoma, dosed 104 weeks, study length 105 weeks) was “negative (inactive)”. For the same molecule, the TD50 (mouse, strain B6C3F1, males, in feed, site: liver, lesion: several types, types named in the paper, dosed 104 weeks, study length 105 weeks) was 2750 mg/kg/day (inactive), the carcinogen call (mouse, strain B6C3F1, males, in feed, site: lung, lesion: several types, types named in the paper, dosed 104 weeks, study length 105 weeks) was “negative (inactive)” and the carcinogen call (rat, strain Fischer 344, females, in feed, site: any site (literature study), lesion: benign tumor, dosed 103 weeks, study length 104 weeks) was “negative (inactive)”. The carcinogen call (rat, strain Fischer 344, females, in feed, site: any site (literature study), lesion: malignant tumor, dosed 103 weeks, study length 104 weeks) was “negative (inactive)”, the carcinogen call (rat, strain Fischer 344, females, in feed, site: any site (literature study), lesion: several types, types named in the paper, dosed 103 weeks, study length 104 weeks) was “negative (inactive)” and the carcinogen call (rat, strain Fischer 344, females, in feed, site: liver, lesion: hepatocellular adenoma, dosed 103 weeks, study length 104 weeks) was “negative (inactive)”. The carcinogen call (rat, strain Fischer 344, females, in feed, site: liver, lesion: hepatocellular carcinoma, dosed 103 weeks, study length 104 weeks) was “negative (inactive)”, the TD50 (rat, strain Fischer 344, males, in feed, site: any site (literature study), lesion: benign tumor, dosed 103 weeks, study length 104 weeks) was 1170 mg/kg/day (inactive) and the carcinogen call (rat, strain Fischer 344, males, in feed, site: any site (literature study), lesion: malignant tumor, dosed 103 weeks, study length 104 weeks) was “negative (inactive)”. The carcinogen call (rat, strain Fischer 344, males, in feed, site: any site (literature study), lesion: several types, types named in the paper, dosed 103 weeks, study length 104 weeks) was “negative (inactive)”, the carcinogen call (rat, strain Fischer 344, males, in feed, site: liver, lesion: hepatocellular adenoma, dosed 103 weeks, study length 104 weeks) was “negative (inactive)” and the carcinogen call (rat, strain Fischer 344, males, in feed, site: liver, lesion: hepatocellular carcinoma, dosed 103 weeks, study length 104 weeks) was “negative (inactive)”.
Molecule `S=C=NCCCc1ccccc1` has a TD50 (rat, strain Fischer 344, males, in feed, site: testis, lesion: interstitial-cell tumor, dosed 89 weeks, study length 89 weeks) of 4.34 mg/kg/day.
With `CC1=C[C@H]2O[C@@H]3[C@H](O)C[C@](C)([C@@]2(CO)[C@H](O)C1=O)[C@]31CO1` the carcinogen call (mouse, strain B6C3F1, males, in feed, site: liver, lesion: hepatocellular adenoma, dosed 104 weeks, study length 104 weeks) was “negative (inactive)” and the carcinogen call (mouse, strain B6C3F1, males, in feed, site: liver, lesion: hepatocellular carcinoma, dosed 104 weeks, study length 104 weeks) was “negative (inactive)”.
